# Assay results taken from publication PMC8467567, “Selective Targeting of Human and Animal Pathogens of the Helicobacter Genus by Flavodoxin Inhibitors: Efficacy, Synergy, Resistance and Mechanistic Studies” (International Journal of Molecular Sciences, 2021).
# How the values were obtained:
# [1] = target: T1, Hp-Fld (H. pylori flavodoxin) (Helicobacter pylori, UniProt O25776); experiment: biochemical; design: isothermal titration calorimetry of compounds binding to recombinant wild-type Hp-Fld, pH 9
# T1 construct: gene fldA; recombinant from pET28a-fldA in E. coli BL21 (DE3); DEAE purification, no tag mentioned; FMN added during lysis, transformed into holoprotein if needed
# T1 sequence (O25776 1-164): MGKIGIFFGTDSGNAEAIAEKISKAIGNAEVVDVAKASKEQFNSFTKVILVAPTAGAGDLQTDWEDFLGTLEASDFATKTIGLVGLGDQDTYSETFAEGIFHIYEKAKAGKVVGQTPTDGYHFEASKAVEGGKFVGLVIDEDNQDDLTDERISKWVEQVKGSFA
# Method: Isothermal titration calorimetry (ITC) experiments were carried out in an Auto-iTC200 calorimeter (MicroCal, Malvern-Panalytical, Malvern, UK) in order to characterise the affinity of the wild-type Hp-Fld protein and the different mutants N14A, A55W, V113W, Q115W, T116W, K133A and D142Y for the different compounds. Recombinant Hp-Fld at 10–20 µM concentration in 50 mM EPPS buffer, pH 9 (for IV, IV-a, IV-b, IV-c, rac-IV-j, rac-IV-k and rac-IV-l), or in 50 mM Tris-HCl buffer, pH 9 (for IV-d) was titrated with 120–300 µM ligand solutions in the same buffer, prepared from stock compound solutions in 100% DMSO. At the residual DMSO concentration of 2.5% employed in the working solutions, wild-type flavodoxin has been described to be conformationally stable and biochemically active. Thermodynamic parameters of the binding equilibrium were calculated by non-linear least-squares regression analysis considering a single ligand binding site and using the user-defined fitting routines in the MicroCal LLC ITC module from the Origin 7.0 software (Northampton, MA, USA). Interaction between wild-type Hp-Fld and compounds IV, IV-a, IV-b, IV-c, IV-d, rac-IV-j, rac-IV-k and rac-IV-l was evaluated by ITC (Figure S3 and Table S1).
# [2] = target: T2, Hp-Fld (H. pylori flavodoxin) (Helicobacter pylori, UniProt O25776, V113W); experiment: biochemical
# T2 construct: gene fldA
# Source text: (§1) isothermal titration calorimetry on Hp-Fld (H. pylori flavodoxin)
# [3] = target: T3, Hp-Fld (H. pylori flavodoxin) (Helicobacter pylori, UniProt O25776, A55W); experiment: biochemical
# T3 construct: gene fldA
# Source text: as §1
# [4] = target: T4, Hp-Fld (H. pylori flavodoxin) (Helicobacter pylori, UniProt O25776, N14A); experiment: biochemical
# T4 construct: gene fldA
# Source text: as §1
# [5] = target: T5, Hp-Fld (H. pylori flavodoxin) (Helicobacter pylori, UniProt O25776, T116W); experiment: biochemical
# T5 construct: gene fldA
# Source text: as §1
# [6] = target: T6, Hp-Fld (H. pylori flavodoxin) (Helicobacter pylori, UniProt O25776, D142Y); experiment: biochemical
# T6 construct: gene fldA
# Source text: as §1
# [7] = target: T1, Hp-Fld (H. pylori flavodoxin); experiment: isothermal titration calorimetry; type: binding
compound,measurement,setting,value
"O=[N+]([O-])c1ccc(SCc2ccc(OCC(O)CO)cc2)c2nonc12 (racemic) [rac-IV-j, rac-3-(4-(((7-Nitrobenzo[c][1,2,5]oxadiazol-4-yl)thio)methyl)phenoxy)propane-1,2-diol]",Kd,[1],2.33 µM
"Nc1ccc(SCc2ccc(OCC(O)CO)cc2)c2nonc12 (racemic) [rac-IV-k, rac-3-(4-(((7-Aminobenzo[c][1,2,5]oxadiazol-4-yl)thio)methyl)phenoxy)propane-1,2-diol]",Kd,[1],3.36 µM
"Nc1ccc([S+]([O-])Cc2ccc(OCC(O)CO)cc2)c2nonc12 (racemic) [rac-IV-l, rac-3-(4-(((7-Aminobenzo[c][1,2,5]oxadiazol-4-yl)sulfinyl)methyl)phenoxy)propane-1,2-diol]",Kd,[1],1.65 µM
COc1ccc(CSc2ccc(N)c3nonc23)cc1 [IV-a],Kd,[1],5.26 µM
COc1ccc(C2(C)SCc3cc(C)c(C)cc3CS2)cc1 [IV-b],Kd,[1],0.91 µM
COc1ccc(CSc2cc(Cl)c(N)c3nonc23)cc1 [IV-c],Kd,[2],1.45 µM
same,Kd,[3],1.05 µM
same,Kd,[4],1.76 µM
same,Kd,[5],1.43 µM
same,Kd,[6],0.44 µM
same,Kd,[7]; read-out: IV-c / Kd^b,0.67 µM
COc1ccc(C[S+]([O-])c2ccc(N)c3nonc23)cc1 (stereo not drawn) [IV-d],Kd,[1],1.55 µM
COc1ccc(CSc2ccc([N+](=O)[O-])c3nonc23)cc1 [IV],Kd,[2],0.5 µM
same,Kd,[3],2.33 µM
same,Kd,[4],0.45 µM
same,Kd,[5],1.1 µM
same,Kd,[6],1.18 µM
same,Kd,[7]; read-out: IV / Kd^b,0.48 µM
